Laboratory results: US20250084095A1, “Aminopyrimidine Derivatives as Cyclin-Dependent Kinase Inhibitors” (Accutar Biotechnology Inc., priority 2023, published 2025)
Where two headings read alike, the source gives them in different places.

Columns and labels:
[1] = test system: Phospho-Rb (Ser807/811) in MCF7 cells; test: Phospho-Rb expression inhibition in MCF7 cells quantified by in cell Western; assay type: cell-based, human; conditions: in cell Western
Summary of the method: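 MCF7 cells were seeded at 20,000/well, grown overnight, then treated 24 h at 37 °C with compound dilutions (0.1% DMSO from 1000× stocks). Fixed cells were co-stained for phospho-Rb Ser807/811 and total Rb. Near-infrared dual-channel in-cell Western imaging was the read-out.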

22RV1 cells = test: Cell growth inhibition of 22RV1 cells (CellTiter-Glo); assay type: cell-based; conditions: 5 days, CellTiter-Glo
Summary of the method: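 22RV1 cells were plated in RPMI1640 with FBS (20% in one version, 10% in the other) and dosed next day at various concentrations from DMSO stocks. After 5 days at 37 °C, viability was measured by CellTiter-Glo luminescence.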

[2] = Homo sapiens, MCF7, 24 h, 24 hours, read-out: MCF7 pRb IC50
[3] = Homo sapiens, 22Rv1, 120 h, read-out: 22RV1 Cell Growh GI50

Row | SMILES | IC50 [1, 2] [nM] | GI50 (22RV1 cells; [3]) [nM] | IC50 ([1]; 24 h incubation, read-out: MCF7, pRb (Ser807/811), IC50) [nM] | GI50 (22RV1 cells; read-out: 22RVI, GI50) [nM]
1 | CC(C)n1c(C(C)(C)O)nc2c(F)cc(-c3nc(N[C@@H]4CCOC[C@H]4O)ncc3Cl)cc21 [Reference Compound, PF-07220060, reference compound] |  |  | 65.2 | 153
2 | CNCc1c(C)c(=O)c2ccc(-c3nc(N[C@@H]4C[C@H]5CO[C@H](O5)[C@H]4O)ncc3F)cc2n1C(C)C [Compound 194, 7-(5-fluoro-2-(((1S,3R,4S,5R)-4-hydroxy-6,8-dioxabicyclo[3.2.1]octan-3-yl)amino)pyrimidin-4-yl)-1-isopropyl-3-methyl-2-((methylamino)methyl)quinolin-4(1H)-one] | 40 to 150 | 120 to 450 |  | 
3 | Cc1nc2c(F)cc(-c3nc(N[C@@H]4C[C@H]5CO[C@H](O5)[C@H]4O)ncc3Cl)cc2n1C(C)C [Compound 25, (1S,3R,4S,5R)-3-((5-chloro-4-(4-fluoro-1-isopropyl-2-methyl-1H-benzo[d]imidazol-6-yl)pyrimidin-2-yl)amino)-6,8-dioxabicyclo[3.2.1]octan-4-ol] | 40 to 150 | 120 to 450 |  | 
4 | CC(C)n1c([C@H]2CCOC2)nc2c(F)cc(-c3nc(N[C@@H]4C[C@H]5CO[C@H](O5)[C@H]4O)ncc3F)cc21 [Compound 269, (1S,3R,4S,5R)-3-((5-fluoro-4-(4-fluoro-1-isopropyl-2-((R)-tetrahydrofuran-3-yl)-1H-benzo[d]imidazol-6-yl)pyrimidin-2-yl)amino)-6,8-dioxabicyclo[3.2.1]octan-4-ol] | 40 to 150 | 120 to 450 |  | 
5 | CCn1cc(C(C)C)c2sc(-c3nc(N[C@@H]4C[C@H]5CO[C@H](O5)[C@H]4O)ncc3Cl)c(C)c2c1=O [Compound 230, 5-ethyl-2-(5-chloro-2-(((1S,3R,4S,5R)-4-hydroxy-6,8-dioxabicyclo[3.2.1]octan-3-yl)amino)pyrimidin-4-yl)-7-isopropyl-3-methylthieno[3,2-c]pyridin-4(5H)-one] | ≤ 40 | 120 to 450 |  | 
6 | CC(C)n1c([C@@H]2CCOC2)nc2c(F)cc(-c3nc(N[C@@H]4C[C@H]5CO[C@H](O5)[C@H]4O)ncc3F)cc21 [Compound 270, (1S,3R,4S,5R)-3-((5-fluoro-4-(4-fluoro-1-isopropyl-2-((S)-tetrahydrofuran-3-yl)-1H-benzo[d]imidazol-6-yl)pyrimidin-2-yl)amino)-6,8-dioxabicyclo[3.2.1]octan-4-ol] | 40 to 150 | 120 to 450 |  | 

The next lines start with results.

Row | IC50 [1, 2] [nM] | GI50 (22RV1 cells; [3]) [nM] | SMILES | IC50 ([1]; 24 h incubation, read-out: MCF7, pRb (Ser807/811), IC50) [nM] | GI50 (22RV1 cells; read-out: 22RVI, GI50) [nM]
7 | ≤ 40 | ≤ 120 | Cc1c(-c2nc(N[C@@H]3C[C@H]4CO[C@H](O4)[C@H]3O)ncc2Cl)sc2c(C(C)C)cnnc12 [Compound 259, (1S,3R,4S,5R)-3-((5-chloro-4-(4-isopropyl-7-methylthieno[3,2-c]pyridazin-6-yl)pyrimidin-2-yl)amino)-6,8-dioxabicyclo[3.2.1]octan-4-ol] |  | 
8 | ≤ 40 | ≤ 120 | Cc1c(-c2nc(N[C@@H]3C[C@H]4CO[C@H](O4)[C@H]3O)ncc2C(F)F)sc2c(C(C)C)cn(C)c(=O)c12 [Compound 227, 2-(5-(difluoromethyl)-2-(((1S,3R,4S,5R)-4-hydroxy-6,8-dioxabicyclo[3.2.1]octan-3-yl)amino)pyrimidin-4-yl)-7-isopropyl-3,5-dimethylthieno[3,2-c]pyridin-4(5H)-one] |  | 
9 | 40 to 150 | 450 to 3000 | Cc1c(-c2nc(N[C@@H]3C[C@H]4CO[C@H](O4)[C@H]3O)ncc2Cl)sc2c(Cl)c(C(C)(C)O)cnc12 [Compound 275, (1S,3R,4S,5R)-3-((5-chloro-4-(7-chloro-6-(2-hydroxypropan-2-yl)-3-methylthieno[3,2-b]pyridin-2-yl)pyrimidin-2-yl)amino)-6,8-dioxabicyclo[3.2.1]octan-4-ol] |  | 
10 | ≤ 40 | ≤ 120 | Cc1c(CN2CC[C@H](F)C2)n(C(C)C)c2cc(-c3nc(N[C@@H]4C[C@H]5CO[C@H](O5)[C@H]4O)ncc3F)ccc2c1=O [Compound 293, 7-(5-fluoro-2-(((1S,3R,4S,5R)-4-hydroxy-6,8-dioxabicyclo[3.2.1]octan-3-yl)amino)pyrimidin-4-yl)-2-(((S)-3-fluoropyrrolidin-1-yl)methyl)-1-isopropyl-3-methylquinolin-4(1H)-one] |  | 
11 | ≤ 40 | 120 to 450 | Cc1c(-c2nc(N[C@@H]3C[C@H]4CO[C@H](O4)[C@H]3O)ncc2Cl)sc2c(C)c(C(C)(C)O)cnc12 [Compound 277, (1S,3R,4S,5R)-3-((5-chloro-4-(6-(2-hydroxypropan-2-yl)-3,7-dimethylthieno[3,2-b]pyridin-2-yl)pyrimidin-2-yl)amino)-6,8-dioxabicyclo[3.2.1]octan-4-ol] |  | 
